The target of one data set is T1, CYP1A2 (Homo sapiens, UniProt P05177).
T1 sequence (P05177 whole entry): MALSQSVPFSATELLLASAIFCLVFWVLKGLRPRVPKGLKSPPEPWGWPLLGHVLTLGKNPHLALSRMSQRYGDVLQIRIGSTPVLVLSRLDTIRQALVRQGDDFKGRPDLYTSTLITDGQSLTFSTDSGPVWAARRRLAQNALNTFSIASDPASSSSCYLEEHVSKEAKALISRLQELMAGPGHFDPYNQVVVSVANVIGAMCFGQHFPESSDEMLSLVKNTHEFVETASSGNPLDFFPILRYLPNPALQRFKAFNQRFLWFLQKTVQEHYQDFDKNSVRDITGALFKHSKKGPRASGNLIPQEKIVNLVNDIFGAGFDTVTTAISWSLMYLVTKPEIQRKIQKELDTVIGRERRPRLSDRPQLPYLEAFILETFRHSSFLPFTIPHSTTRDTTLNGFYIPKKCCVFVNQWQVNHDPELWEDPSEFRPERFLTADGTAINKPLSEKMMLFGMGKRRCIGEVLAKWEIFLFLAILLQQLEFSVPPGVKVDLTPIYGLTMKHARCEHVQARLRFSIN
Kind of data set: Inhibition of human CYP1A2 assessed as ratio of IC50 in absence of NADPH to IC50 for presence of NADPH using ethoxyresorufin as substrate after 30 mins.

The next data set has as its target CYP2C9 (Homo sapiens, UniProt P11712). Put plainly: Inhibition of human CYP2C9 assessed as ratio of IC50 in absence of NADPH to IC50 for presence of NADPH using 7-methoxy-4-trifluoromethylcoumarin-3-acetic acid as substrate after 30 mins.
The target in another data set is CYP2C19 (Homo sapiens, UniProt P33261). Kind of data set: Inhibition of human CYP2C19 assessed as ratio of IC50 in absence of NADPH to IC50 for presence of NADPH using 3-butyryl-7-methoxycoumarin as substrate after 30 mins.
Data set [1] deals with T2, CYP3A4 (Homo sapiens, UniProt P08684). Put plainly: Inhibition of human CYP3A4 assessed as ratio of IC50 in absence of NADPH to IC50 for presence of NADPH using diethoxyfluorescein as substrate after 30 mins.
The test system of data set [2] is Liver microsomes. Kind of data set: Metabolic stability in human liver microsomes assessed as high signal/noise ratio (S/N of >100) by measuring GSH adduct formation at 100 uM after 90 mins by HPLC-MS analysis. The conditions noted are these: 1.5 h. In general terms: Liver microsomes are a subcellular fraction often used to study metabolism.
For the next data set, the target named is CYP2D6 (Homo sapiens, UniProt P10635). Put plainly: Inhibition of human CYP2D6 assessed as ratio of IC50 in absence of NADPH to IC50 for presence of NADPH using 4-methylaminoethyl-7-methoxycoumarin as substrate after 30 mins.
The subject of data set [3] is Liver microsomes. The conditions noted are these: human, 1.5 h, 100 µM.
The target of data set [4] is T2, CYP3A4. Kind of data set: Inhibition of human CYP3A4 assessed as ratio of IC50 in absence of NADPH to IC50 for presence of NADPH using 7-benzyloxyquinoline as substrate after 30 mins.
For data set [5], the system named is Liver microsomes. Put plainly: Metabolic stability in human liver microsomes assessed as GSH adduct formation at 100 uM after 90 mins by HPLC-MS analysis. The conditions noted are these: 1.5 h.

We go through four compounds from ChEMBL document CHEMBL2069259, “Preclinical strategy to reduce clinical hepatotoxicity using in vitro bioactivation data for >200 compounds” (Chem Res Toxicol, 2012).

Bounds are passed on as bounds.

T2 sequence (P08684 whole entry): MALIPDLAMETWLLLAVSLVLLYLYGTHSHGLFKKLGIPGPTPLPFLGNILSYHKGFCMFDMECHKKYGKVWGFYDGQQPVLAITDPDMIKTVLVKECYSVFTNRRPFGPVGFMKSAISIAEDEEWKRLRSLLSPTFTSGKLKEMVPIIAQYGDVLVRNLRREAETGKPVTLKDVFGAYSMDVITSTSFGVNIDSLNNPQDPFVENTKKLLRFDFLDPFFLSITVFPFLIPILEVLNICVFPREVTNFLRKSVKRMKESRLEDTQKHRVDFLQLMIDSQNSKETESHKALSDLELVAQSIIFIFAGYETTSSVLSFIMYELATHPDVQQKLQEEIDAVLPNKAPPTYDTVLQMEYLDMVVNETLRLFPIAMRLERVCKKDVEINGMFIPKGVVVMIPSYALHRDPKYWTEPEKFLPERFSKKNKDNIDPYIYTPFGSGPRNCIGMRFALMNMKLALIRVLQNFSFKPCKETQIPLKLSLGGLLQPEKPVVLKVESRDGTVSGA
CYP2C19, sequence (P33261 whole entry): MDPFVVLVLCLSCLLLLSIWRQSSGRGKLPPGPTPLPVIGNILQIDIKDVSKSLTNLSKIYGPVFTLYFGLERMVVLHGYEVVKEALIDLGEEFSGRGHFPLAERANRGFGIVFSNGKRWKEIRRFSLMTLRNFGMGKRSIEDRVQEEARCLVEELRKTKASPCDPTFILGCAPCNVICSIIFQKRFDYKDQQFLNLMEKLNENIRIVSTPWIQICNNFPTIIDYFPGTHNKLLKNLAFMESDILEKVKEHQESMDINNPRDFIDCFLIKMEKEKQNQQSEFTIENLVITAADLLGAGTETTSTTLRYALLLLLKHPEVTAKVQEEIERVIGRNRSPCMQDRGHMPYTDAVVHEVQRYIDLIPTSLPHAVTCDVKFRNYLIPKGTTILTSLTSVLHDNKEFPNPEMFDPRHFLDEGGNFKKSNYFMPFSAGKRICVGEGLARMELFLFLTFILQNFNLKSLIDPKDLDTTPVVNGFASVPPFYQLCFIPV
CYP2C9, sequence (P11712 whole entry): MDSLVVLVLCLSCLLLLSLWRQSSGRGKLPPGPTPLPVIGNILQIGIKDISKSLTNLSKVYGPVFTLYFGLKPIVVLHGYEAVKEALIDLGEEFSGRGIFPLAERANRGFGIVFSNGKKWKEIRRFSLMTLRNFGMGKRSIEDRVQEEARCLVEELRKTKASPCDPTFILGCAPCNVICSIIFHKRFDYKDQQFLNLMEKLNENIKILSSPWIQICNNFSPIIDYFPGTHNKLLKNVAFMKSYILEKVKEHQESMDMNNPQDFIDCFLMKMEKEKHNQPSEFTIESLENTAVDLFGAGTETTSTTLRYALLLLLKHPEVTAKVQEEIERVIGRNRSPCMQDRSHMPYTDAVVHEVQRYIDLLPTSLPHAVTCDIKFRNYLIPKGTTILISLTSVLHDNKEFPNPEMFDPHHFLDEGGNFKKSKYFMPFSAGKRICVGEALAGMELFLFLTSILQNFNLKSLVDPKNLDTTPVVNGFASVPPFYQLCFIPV
CYP2D6, sequence (P10635 whole entry): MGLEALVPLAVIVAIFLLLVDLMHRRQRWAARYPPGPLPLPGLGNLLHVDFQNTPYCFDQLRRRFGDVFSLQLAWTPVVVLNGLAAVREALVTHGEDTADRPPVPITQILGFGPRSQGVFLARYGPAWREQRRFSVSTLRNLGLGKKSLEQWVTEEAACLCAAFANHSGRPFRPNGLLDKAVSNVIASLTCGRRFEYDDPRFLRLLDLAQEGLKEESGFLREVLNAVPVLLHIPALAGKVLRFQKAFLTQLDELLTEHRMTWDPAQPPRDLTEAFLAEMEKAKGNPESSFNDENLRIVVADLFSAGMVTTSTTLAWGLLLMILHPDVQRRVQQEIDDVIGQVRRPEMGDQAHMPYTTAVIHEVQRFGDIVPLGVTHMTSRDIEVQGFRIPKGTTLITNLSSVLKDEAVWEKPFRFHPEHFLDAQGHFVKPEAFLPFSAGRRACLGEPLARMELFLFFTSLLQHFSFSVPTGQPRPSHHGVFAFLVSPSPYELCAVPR

On to `CC(COc1ccccc1)N(CCCl)Cc1ccccc1` (stereo not given) [PHENOXYBENZAMINE], for which the IC50 shift at 0.5 h on CYP1A2 (probe ethoxyresorufin) was 2; at CYP2C9 (probe 7-methoxy-4-trifluoromethylcoumarin-3-acetic acid), below 2; on CYP2C19 (probe 3-butyryl-7-methoxycoumarin), 2; on CYP3A4 [1] (probe diethoxyfluorescein), 2. Further, in the data set with Liver microsomes [2], the Stability result was “Unstable”.
On to `NNCCc1ccccc1` [PHENELZINE], for which the IC50 shift at 0.5 h on CYP1A2 is 2; on CYP2C9, 2; on CYP2C19, above 5; on CYP2D6, above 5; at CYP3A4 [1], 2. For the same compound, in the data set on Liver microsomes [3], the Stability result was “Unstable”.
Consider `CCN(CC)CC#CCOC(=O)C(O)(c1ccccc1)C1CCCCC1` (stereo not given) [OXYBUTYNIN], for which the IC50 shift at 0.5 h was above 2 on CYP1A2, below 2 at CYP2C9 and above 5 at CYP2C19. The Stability entry in the data set with Liver microsomes [2] is reported as “Unstable”.
With `CNCCC(Oc1ccc(C(F)(F)F)cc1)c1ccccc1` (stereo not given) [FLUOXETINE], the IC50 shift at 0.5 h is 2 at CYP2C9, above 5 on CYP2C19, 2 at CYP3A4 [1] and above 5 at CYP3A4 [4]. The Stability result in the data set on Liver microsomes [5] is on record as “Stable”.
